The source of these data is ChEMBL document CHEMBL5126500, “Small-molecule inhibitors of breast cancer-related targets: Potential therapeutic agents for breast cancer” (Eur J Med Chem, 2021).

One experiment has as its system MX1. Kind of experiment: Cytotoxicity against human MX1 cells assessed as cell survival incubated for 72 hrs by MTT assay. The class given is functional, cell-based. As to conditions: MX1, 72 h.
Experiment [1] addresses T1, Poly [ADP-ribose] polymerase 1 (Homo sapiens, UniProt P09874). Put plainly: Inhibition of PARP1 (unknown origin) using NAD+ as substrate incubated for 30 mins by fluorescence based assay.
The test system of a further experiment is MDA-MB-436. Kind of experiment: Antiproliferative activity against BRCA1 deficient human MDA-MB-436 cells assessed as reduction in cell viability incubated for 96 hrs by MTT assay. As to conditions: MDA-MB-436, 96 h. The class given is functional, cell-based. (Formazan colour is commonly taken as a measure of viable cells.)
The target of a further experiment is CDK6/cyclin D3 (Homo sapiens, UniProt Q00534). Kind of experiment: Binding affinity to CDK6/Cyclin D3 (unknown origin) assessed as inhibition constant by radiometric assay. It is filed as protein-complex assay.
Experiment [2] deals with T1, Poly [ADP-ribose] polymerase 1. Put plainly: Inhibition of PARP1 (unknown origin) incubated for 1 hr by colorimetry.
The target of the next experiment is T2, Histone deacetylase 8 (Homo sapiens, UniProt Q9BY41).
T2 sequence (Q9BY41 whole entry): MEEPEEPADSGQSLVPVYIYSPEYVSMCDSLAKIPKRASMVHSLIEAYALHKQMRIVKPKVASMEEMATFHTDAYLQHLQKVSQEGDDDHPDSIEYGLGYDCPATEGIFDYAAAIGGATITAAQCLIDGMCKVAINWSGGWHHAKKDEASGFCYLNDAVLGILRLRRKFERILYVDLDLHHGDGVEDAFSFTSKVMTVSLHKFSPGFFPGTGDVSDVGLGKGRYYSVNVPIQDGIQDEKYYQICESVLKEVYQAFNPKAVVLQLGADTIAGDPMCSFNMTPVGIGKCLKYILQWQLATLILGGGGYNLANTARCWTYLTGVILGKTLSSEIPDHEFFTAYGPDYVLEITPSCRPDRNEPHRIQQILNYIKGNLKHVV
Kind of experiment: Inhibition of human recombinant HDAC8 using BML-KI178-0005 as substrate incubated for 10 mins by fluorescence based assay.

Experiment [3] concerns the target T3, Bromodomain-containing protein 4 (Homo sapiens, UniProt O60885). Kind of experiment: Inhibition of BRD4 BD1 (unknown origin).
Experiment [4] deals with T3, Bromodomain-containing protein 4. Put plainly: Inhibition of BRD4 BD2 (unknown origin).
The target of experiment [5] is Serine/threonine-protein kinase PLK1 (Homo sapiens, UniProt P53350). Put plainly: Inhibition of PLK1-PBD (unknown origin) using FITC-GPMQSpTPLNG-OH as substrate incubated for 30 mins by fluorescence polarization assay. In general terms: In fluorescence polarisation assays a small probe gives low polarisation when free and higher when bound to something large.
Chain of Serine/threonine-protein kinase PLK1 (P53350 whole entry): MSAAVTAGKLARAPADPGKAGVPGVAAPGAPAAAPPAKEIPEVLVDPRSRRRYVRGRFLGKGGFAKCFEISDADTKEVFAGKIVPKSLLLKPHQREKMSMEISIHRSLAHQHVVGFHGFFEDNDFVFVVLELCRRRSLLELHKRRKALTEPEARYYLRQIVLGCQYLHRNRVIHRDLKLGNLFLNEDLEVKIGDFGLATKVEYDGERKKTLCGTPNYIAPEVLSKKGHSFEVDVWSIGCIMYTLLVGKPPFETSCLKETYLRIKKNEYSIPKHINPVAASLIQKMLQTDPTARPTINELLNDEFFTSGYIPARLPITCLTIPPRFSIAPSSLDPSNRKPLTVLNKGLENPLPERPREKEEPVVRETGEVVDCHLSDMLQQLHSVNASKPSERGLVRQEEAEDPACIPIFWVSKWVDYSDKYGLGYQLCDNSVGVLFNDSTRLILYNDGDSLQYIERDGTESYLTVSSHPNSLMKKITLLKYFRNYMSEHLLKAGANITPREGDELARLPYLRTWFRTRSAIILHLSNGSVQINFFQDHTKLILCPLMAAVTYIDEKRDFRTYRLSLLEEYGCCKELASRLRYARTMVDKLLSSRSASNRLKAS

T1 sequence (P09874 whole entry): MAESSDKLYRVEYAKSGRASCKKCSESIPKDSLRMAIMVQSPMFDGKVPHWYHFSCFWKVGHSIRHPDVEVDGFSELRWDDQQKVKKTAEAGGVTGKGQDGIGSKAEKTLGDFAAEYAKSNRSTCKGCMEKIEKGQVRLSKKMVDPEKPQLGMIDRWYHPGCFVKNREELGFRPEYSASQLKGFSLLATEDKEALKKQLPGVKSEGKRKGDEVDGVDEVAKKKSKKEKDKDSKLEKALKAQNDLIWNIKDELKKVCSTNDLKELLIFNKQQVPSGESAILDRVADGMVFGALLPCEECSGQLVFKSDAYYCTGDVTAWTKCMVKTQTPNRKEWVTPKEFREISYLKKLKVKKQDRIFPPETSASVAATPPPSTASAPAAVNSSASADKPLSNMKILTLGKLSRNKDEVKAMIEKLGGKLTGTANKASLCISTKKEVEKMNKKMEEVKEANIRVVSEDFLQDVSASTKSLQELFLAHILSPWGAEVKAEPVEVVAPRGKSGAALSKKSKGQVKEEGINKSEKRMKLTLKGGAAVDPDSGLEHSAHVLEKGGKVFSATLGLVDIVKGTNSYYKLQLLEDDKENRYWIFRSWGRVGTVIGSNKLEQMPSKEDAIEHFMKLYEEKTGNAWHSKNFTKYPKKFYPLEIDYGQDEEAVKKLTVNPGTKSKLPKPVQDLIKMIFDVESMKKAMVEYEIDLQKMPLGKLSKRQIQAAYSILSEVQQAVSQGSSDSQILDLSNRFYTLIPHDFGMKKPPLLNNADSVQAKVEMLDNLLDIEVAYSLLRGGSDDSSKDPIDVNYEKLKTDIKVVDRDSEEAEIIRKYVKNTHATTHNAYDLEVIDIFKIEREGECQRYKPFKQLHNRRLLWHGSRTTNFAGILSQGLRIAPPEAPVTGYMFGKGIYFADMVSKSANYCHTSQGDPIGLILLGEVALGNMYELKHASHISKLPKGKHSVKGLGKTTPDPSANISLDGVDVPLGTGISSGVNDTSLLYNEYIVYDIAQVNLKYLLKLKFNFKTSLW
Chain of CDK6/cyclin D3 (P30281 whole entry): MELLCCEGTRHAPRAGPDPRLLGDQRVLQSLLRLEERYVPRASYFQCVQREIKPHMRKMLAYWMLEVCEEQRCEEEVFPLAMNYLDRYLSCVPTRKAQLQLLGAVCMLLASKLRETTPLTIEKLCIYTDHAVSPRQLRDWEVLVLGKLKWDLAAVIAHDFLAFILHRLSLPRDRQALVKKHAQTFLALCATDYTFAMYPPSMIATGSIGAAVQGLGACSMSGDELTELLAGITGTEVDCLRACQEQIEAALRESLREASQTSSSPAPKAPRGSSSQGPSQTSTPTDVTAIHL
Chain of CDK6/cyclin D3 (Q00534 whole entry): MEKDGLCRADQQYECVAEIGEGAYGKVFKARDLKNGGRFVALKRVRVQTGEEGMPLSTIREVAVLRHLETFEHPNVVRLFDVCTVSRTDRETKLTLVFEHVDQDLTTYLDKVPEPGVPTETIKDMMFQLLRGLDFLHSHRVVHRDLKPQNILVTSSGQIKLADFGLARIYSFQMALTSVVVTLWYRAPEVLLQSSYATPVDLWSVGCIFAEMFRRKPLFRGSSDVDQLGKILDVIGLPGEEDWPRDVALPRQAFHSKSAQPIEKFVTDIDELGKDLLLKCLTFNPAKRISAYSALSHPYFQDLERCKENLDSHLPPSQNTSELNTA

`CC(C)N1CCC(NC(=O)c2cc(Cn3c(=O)[nH]c(=O)c4ccccc43)ccc2F)C1` (centres undefined): the IC50 with MX1 was under 3120 nM. As for `CC(c1nc2c(C(N)=O)cccc2[nH]1)N1CC(=O)N(c2ccc(C(F)(F)F)cc2)C1=S` (centres undefined), the IC50 was determined as 25 nM in [1] and 1000 nM in the experiment on MDA-MB-436. In the case of `CC(=O)N1N=C(c2c(O)c3ccccc3oc2=O)CC1c1ccccc1Cl` (centres undefined), the Ki on CDK6/cyclin D3 is 13.4 nM. On to `O=C(c1ccc(Cc2n[nH]c(=O)c3cccnc23)cc1)n1cccc1`, for which, in experiment [2], the half-inhibitory concentration (IC50) was 36 nM. Turning to `O=C(CCN1CCN(C(=O)Nc2ccnc3ccccc23)CC1)NO`, the IC50 at Histone deacetylase 8 came out at 1740 nM. Take `C#CCSc1nc2nc(C)cc(Nc3cc(-c4ccccc4)[nH]n3)n2n1`: the results for the IC50 in [3] and in experiment [4] were 2150 nM and 4360 nM, respectively. `O=C(CCNC(=O)c1ccc(CO)cc1)N[C@@H](Cc1cnnn1CCc1ccccc1)C(=O)NCc1cn(CCP(=O)(O)O)nn1` yielded an IC50 in experiment [5] of 3370 nM.

For orientation: IC50 means the midpoint of a concentration-inhibition curve. In general, Ki refers to a dissociation constant, usually derived from enzyme kinetics or from competition with a known ligand.
